In patent US8959984B2, “Proteome-wide quantification of small molecule binding to cellular target proteins” (priority 2007, dated 2015):

Legend:
Assay in all cases: binding to VI16742 beads (HeLa lysate, SILAC MS)
2-PDE (IPI00174390) = molecular target: T1, 2-PDE (IPI00174390) (Homo sapiens, UniProt Q6L8Q7)
T1 construct: endogenous in cells; host or cells: HeLa S3 cell lysate
T1 sequence (Q6L8Q7 43-609): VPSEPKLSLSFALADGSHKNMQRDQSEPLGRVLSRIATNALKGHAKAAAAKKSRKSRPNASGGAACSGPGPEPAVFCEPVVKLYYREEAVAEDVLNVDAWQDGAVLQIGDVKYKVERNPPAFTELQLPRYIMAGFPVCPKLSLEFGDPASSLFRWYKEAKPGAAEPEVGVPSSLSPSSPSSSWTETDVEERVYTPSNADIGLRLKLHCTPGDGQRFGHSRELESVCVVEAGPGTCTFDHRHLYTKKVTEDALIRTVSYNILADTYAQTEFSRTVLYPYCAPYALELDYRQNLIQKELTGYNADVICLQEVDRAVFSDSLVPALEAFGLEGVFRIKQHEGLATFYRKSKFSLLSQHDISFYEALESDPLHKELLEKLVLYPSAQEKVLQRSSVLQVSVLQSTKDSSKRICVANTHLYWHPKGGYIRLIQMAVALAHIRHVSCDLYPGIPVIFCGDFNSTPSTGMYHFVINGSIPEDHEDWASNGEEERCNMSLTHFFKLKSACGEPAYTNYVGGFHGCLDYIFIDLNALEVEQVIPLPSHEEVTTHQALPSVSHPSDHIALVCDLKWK
From the text: (§1) In an alternative implementation of the chemical proteomic approach according to the invention, the broadly-selective pyrido[2,3-d]pyrimidine-based kinase inhibitor VI16742 has been used for affinity capture (FIG. 10a). […] As shown by gene ontology analysis, the corresponding molecular functions were highly over-represented in proteins specifically retained by the inhibitor resin (FIG. 10b).

ILK (IPI00013219) = molecular target: T2, ILK (IPI00013219) (Homo sapiens, UniProt Q13418)
T2 construct: endogenous in cells; host or cells: HeLa S3
T2 sequence (Q13418 1-452): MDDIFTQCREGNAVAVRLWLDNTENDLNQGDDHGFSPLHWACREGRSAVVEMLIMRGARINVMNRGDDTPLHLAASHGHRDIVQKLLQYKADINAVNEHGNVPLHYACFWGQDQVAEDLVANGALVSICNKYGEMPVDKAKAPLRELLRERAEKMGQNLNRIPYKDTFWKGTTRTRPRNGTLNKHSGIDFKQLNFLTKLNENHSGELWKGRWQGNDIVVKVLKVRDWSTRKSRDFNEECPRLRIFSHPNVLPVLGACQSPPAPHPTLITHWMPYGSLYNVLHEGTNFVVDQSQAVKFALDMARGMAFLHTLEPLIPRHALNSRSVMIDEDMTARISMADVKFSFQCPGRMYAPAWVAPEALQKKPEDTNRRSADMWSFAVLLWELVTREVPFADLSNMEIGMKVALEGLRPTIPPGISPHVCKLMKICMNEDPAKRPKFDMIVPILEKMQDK
From the text: as §1

MAP2K1 (IPI00219604) = molecular target: T3, MAP2K1 (IPI00219604) (Homo sapiens, UniProt Q02750)
T3 construct: endogenous in cells; host or cells: HeLa S3
From the text: as §1

MET (IPI00294528) = molecular target: T4, MET (IPI00294528) (Homo sapiens, UniProt P08581)
T4 construct: endogenous in cells; host or cells: HeLa S3 cell lysate
From the text: as §1

[1] = molecular target: T5, MSK1 (RPS6KA5, IPI00335101) (Homo sapiens, UniProt O75582)
T5 construct: endogenous in cells; host or cells: HeLa S3
From the text: as §1

PIK3C2A (IPI00002580) = molecular target: T6, PIK3C2A (IPI00002580) (Homo sapiens, UniProt O00443)
T6 construct: endogenous in cells; host or cells: HeLa S3
From the text: as §1

[2] = molecular target: T7, TAO1 (TAOK1, IPI00002232) (Homo sapiens, UniProt Q7L7X3)
T7 construct: endogenous in cells; host or cells: HeLa S3
T7 sequence (Q7L7X3 1-1001): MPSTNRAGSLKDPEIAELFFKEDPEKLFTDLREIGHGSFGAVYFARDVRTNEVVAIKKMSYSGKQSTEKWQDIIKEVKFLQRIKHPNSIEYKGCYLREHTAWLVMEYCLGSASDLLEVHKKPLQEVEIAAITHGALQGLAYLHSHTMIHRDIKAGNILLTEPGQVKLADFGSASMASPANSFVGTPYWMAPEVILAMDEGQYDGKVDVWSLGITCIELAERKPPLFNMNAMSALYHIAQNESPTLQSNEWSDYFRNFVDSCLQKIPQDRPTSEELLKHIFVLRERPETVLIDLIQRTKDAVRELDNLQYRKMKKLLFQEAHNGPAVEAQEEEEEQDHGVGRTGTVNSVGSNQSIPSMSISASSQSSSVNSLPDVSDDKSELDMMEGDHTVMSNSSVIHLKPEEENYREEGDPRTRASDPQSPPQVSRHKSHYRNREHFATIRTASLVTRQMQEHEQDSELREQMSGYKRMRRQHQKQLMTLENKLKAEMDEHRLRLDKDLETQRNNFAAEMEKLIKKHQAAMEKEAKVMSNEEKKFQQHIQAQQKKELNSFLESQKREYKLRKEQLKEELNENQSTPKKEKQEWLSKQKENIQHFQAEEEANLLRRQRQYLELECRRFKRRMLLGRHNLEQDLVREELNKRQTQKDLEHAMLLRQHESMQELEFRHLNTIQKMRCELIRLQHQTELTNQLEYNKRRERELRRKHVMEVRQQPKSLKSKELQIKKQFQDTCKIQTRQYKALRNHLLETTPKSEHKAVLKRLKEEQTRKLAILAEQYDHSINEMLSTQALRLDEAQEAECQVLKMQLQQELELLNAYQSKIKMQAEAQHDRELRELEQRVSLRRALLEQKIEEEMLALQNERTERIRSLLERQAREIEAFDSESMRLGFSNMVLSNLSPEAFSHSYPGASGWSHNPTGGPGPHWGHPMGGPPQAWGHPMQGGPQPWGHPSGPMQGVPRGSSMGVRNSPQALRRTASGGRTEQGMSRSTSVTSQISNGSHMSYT
From the text: as §1

[3] = control beads vs first incubation

T4 sequence (P08581 25-1390): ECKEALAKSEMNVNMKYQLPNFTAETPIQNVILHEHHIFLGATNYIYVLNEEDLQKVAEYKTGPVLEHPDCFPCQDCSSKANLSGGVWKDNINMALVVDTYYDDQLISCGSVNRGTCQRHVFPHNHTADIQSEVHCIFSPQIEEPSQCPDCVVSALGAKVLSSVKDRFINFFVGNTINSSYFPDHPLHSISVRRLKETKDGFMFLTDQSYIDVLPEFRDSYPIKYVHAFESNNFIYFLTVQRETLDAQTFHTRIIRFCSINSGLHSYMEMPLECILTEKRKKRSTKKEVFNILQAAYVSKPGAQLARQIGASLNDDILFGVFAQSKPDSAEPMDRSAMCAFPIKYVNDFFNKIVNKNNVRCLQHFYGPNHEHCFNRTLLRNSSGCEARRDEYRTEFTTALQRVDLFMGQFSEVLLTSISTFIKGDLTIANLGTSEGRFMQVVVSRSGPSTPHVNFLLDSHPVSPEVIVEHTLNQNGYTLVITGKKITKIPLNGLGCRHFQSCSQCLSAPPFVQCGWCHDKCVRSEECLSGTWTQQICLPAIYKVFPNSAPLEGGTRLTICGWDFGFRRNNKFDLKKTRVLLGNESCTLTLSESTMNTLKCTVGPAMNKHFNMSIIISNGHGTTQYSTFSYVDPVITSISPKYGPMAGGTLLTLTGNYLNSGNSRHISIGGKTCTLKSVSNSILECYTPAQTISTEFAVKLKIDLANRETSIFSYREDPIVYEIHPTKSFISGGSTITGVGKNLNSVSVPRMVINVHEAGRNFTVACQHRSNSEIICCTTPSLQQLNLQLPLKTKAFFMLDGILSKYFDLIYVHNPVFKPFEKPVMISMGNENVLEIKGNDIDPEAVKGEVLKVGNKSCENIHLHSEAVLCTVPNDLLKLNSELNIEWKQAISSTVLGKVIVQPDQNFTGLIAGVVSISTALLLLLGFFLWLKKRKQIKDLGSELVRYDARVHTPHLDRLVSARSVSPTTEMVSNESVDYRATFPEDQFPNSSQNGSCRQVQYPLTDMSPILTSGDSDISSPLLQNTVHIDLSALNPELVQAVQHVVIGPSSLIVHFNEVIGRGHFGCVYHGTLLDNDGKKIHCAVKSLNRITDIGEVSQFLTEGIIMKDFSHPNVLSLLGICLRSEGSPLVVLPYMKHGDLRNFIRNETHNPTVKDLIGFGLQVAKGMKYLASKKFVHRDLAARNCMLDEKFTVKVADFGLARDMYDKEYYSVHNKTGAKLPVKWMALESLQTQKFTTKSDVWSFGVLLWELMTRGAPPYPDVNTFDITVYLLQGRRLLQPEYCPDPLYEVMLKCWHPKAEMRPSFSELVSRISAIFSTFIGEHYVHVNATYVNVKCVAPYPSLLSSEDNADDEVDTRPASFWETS
T3 sequence (Q02750 whole entry): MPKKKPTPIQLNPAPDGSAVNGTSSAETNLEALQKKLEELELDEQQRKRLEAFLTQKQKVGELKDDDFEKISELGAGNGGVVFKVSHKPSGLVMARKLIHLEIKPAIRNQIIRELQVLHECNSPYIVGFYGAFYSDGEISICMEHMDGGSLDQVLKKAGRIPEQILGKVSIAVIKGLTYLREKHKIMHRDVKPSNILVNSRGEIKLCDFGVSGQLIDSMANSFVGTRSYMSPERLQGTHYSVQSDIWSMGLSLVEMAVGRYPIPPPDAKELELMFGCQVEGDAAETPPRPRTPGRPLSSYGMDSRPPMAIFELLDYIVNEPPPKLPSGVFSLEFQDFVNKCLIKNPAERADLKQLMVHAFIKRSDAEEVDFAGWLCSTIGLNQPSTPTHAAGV
T6 sequence (O00443 whole entry): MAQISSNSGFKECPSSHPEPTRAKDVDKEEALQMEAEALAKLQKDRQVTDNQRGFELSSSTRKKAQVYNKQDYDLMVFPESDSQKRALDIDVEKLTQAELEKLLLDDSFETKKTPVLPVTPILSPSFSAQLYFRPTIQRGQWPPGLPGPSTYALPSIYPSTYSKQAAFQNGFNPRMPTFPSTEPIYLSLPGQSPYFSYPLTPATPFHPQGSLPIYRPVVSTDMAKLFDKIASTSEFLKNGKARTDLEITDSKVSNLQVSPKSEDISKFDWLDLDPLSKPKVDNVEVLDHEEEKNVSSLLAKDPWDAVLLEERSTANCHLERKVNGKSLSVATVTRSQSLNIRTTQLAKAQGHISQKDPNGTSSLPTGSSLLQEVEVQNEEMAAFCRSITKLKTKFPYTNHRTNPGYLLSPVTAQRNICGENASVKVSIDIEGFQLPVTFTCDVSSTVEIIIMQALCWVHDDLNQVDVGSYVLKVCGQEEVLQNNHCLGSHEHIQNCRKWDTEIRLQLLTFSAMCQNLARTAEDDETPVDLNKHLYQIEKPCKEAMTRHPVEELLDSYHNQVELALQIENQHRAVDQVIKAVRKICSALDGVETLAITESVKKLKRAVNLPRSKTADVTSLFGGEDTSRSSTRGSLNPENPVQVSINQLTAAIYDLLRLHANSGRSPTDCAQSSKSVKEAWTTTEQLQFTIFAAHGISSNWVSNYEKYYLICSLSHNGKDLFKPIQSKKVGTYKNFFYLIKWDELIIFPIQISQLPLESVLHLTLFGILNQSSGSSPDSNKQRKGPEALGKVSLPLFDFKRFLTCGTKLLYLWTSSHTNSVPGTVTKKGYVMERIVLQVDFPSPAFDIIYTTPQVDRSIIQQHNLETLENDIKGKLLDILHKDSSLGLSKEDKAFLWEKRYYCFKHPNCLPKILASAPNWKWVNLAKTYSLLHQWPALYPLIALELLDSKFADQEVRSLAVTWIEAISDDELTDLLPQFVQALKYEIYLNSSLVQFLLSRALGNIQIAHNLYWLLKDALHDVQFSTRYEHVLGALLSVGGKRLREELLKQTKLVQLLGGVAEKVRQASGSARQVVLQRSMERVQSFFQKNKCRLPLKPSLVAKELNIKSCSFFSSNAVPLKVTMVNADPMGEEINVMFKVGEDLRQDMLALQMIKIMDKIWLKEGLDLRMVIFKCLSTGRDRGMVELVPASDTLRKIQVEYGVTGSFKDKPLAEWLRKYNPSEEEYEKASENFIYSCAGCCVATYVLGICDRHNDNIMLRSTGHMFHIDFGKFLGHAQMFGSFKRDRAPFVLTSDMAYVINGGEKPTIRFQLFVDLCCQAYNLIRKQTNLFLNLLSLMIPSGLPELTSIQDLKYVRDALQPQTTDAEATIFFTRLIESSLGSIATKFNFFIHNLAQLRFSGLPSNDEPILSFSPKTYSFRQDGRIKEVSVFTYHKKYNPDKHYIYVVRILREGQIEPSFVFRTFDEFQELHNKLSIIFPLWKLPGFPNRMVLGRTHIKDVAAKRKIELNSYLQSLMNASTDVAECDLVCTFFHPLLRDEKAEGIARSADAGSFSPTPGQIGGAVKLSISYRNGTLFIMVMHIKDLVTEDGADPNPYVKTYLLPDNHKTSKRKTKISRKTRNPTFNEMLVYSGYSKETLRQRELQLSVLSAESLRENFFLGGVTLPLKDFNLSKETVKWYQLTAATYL
T5 sequence (O75582 whole entry): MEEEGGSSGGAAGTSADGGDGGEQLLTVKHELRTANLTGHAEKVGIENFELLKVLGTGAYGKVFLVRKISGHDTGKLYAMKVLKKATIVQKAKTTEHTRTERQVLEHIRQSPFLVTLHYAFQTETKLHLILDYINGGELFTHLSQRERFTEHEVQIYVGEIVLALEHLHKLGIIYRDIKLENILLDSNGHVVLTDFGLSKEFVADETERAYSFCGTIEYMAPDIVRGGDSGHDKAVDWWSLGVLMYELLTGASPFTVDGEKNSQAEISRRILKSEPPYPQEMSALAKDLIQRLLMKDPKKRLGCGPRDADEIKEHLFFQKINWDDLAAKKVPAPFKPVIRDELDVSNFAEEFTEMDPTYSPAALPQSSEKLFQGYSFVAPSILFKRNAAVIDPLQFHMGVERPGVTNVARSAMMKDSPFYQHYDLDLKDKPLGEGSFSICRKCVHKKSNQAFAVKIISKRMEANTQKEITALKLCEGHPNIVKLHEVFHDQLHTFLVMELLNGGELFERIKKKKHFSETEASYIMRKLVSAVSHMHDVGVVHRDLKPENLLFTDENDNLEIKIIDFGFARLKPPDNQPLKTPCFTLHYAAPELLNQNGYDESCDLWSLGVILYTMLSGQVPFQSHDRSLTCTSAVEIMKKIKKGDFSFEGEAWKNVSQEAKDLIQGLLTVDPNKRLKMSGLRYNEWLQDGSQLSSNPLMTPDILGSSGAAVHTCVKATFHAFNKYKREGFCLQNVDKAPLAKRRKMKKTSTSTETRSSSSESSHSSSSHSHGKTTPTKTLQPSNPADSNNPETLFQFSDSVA

## CC(C)n1c(=O)ccc2cnc(Nc3ccc(OCCN)cc3)nc21 [V16742]
2-PDE (IPI00174390); [3]
  rAVERAGE (CTRL/1 INC): 0.03
2-PDE (IPI00174390); immobilized VI16742
  Ki: 100 µM
2-PDE (IPI00174390); second vs first incubation
  rAVERAGE (2 INC/1 INC): 0.66
ILK (IPI00013219); 5 h vs 2.5 h incubation time
  r (5 h/2.5 h INC. TIME): 1.47
ILK (IPI00013219); [3]
  rAVERAGE (CTRL/1 INC): 0.03
ILK (IPI00013219); immobilized VI16742
  Ki: 172 µM
ILK (IPI00013219); second vs first incubation
  rAVERAGE (2 INC/1 INC): 0.77
MAP2K1 (IPI00219604); 5 h vs 2.5 h incubation time
  r (5 h/2.5 h INC. TIME): 1.68
MAP2K1 (IPI00219604); [3]
  rAVERAGE (CTRL/1 INC): 0.07
MAP2K1 (IPI00219604); immobilized VI16742
  Ki: 180 µM
MAP2K1 (IPI00219604); second vs first incubation
  rAVERAGE (2 INC/1 INC): 0.78
MET (IPI00294528); [3]
  rAVERAGE (CTRL/1 INC): 0.08
MET (IPI00294528); immobilized VI16742
  Ki: 94.8 µM
MET (IPI00294528); second vs first incubation
  rAVERAGE (2 INC/1 INC): 0.65
[1]; [3]
  rAVERAGE (CTRL/1 INC): 0.03
[1]; immobilized VI16742
  Ki: 217 µM
[1]; second vs first incubation
  rAVERAGE (2 INC/1 INC): 0.81
PIK3C2A (IPI00002580); [3]
  rAVERAGE (CTRL/1 INC): 0.18
PIK3C2A (IPI00002580); immobilized VI16742
  Ki: 104 µM
PIK3C2A (IPI00002580); second vs first incubation
  rAVERAGE (2 INC/1 INC): 0.67
[2]; 3 mg vs 1 mg lysate
  r (3 MG/1 MG LYSATE): 2.64
[2]; 5 h vs 2.5 h incubation time
  r (5 h/2.5 h INC. TIME): 1.02
[2]; [3]
  rAVERAGE (CTRL/1 INC): 0.06
[2]; immobilized VI16742
  Ki: 162 µM
[2]; second vs first incubation
  rAVERAGE (2 INC/1 INC): 0.76
